According to patent publication US7951824B2, “4-aryl-pyridine-2-carboxyamide derivatives” (Hoffman-La Roche Inc., priority 2006, dated 2011):

The compounds below were run against T1, human mGlu 5a receptor (Homo sapiens, UniProt P41594) (assay: [3H]MPEP competition binding on membranes of EBNA cells transfected with human mGlu 5a receptor). Settings: competition with [3H]MPEP (2 nM), 1 h at 4° C., EBNA cell membranes.
T1 construct: expressed in transfected cells; host or cells: EBNA cells (transient transfection), membrane homogenates
Procedure: The pharmacological activity of the compounds was tested using the following method: For binding experiments, cDNA encoding human mGlu 5a receptor was transiently transfected into EBNA cells using a procedure described by Schlaeger and Christensen [Cytotechnology 15:1-13 (1998)]. Cell membrane homogenates were stored at −80° C. until the day of assay where upon they were thawed and resuspended and polytronised in 15 mM Tris-HCl, 120 mM NaCl, 100 mM KCl, 25 mM CaCl2, 25 mM MgCl2 binding buffer at pH 7.4 to a final assay concentration of 20 μg protein/well.
Saturation isotherms were determined by addition of twelve [^3H] MPEP concentrations (0.04-100 nM) to these membranes (in a total volume of 200 μd) for 1 h at 4° C. Competition experiments were performed with a fixed concentration of [^3H]MPEP (2 nM) and IC50 values of test compounds evaluated using 11 concentrations (0.3-10,000 nM). Incubations were performed for 1 h at 4° C.
At the end of the incubation, membranes were filtered onto unifilter (96-well white microplate with bonded GF/C filter preincubated 1 h in 0.1% PEI in wash buffer, Packard Bio-Science, Meriden, Conn.) with a Filtermate 96 harvester (Packard BioScience) and washed 3 times with cold 50 mM Tris-HCl, pH 7.4 buffer. Nonspecific binding was measured in the presence of 10 μM MPEP. The radioactivity on the filter was counted (3 min) on a Packard Top-count microplate scintillation counter with quenching correction after addition of 45 μl of microscint 40 (Canberra Packard S. A., Zürich, Switzerland) and shaking for 20 min.
For binding experiments the Ki values of the compounds tested are given. The Ki value is defined by the following formula: KiIC50/[1+L/Kd] in which the IC50 values are those concentrations of the compounds tested which cause 50% inhibition of the competing radioligand ([^3H]MPEP). L is the concentration of radioligand used in the binding experiment and the Kd value of the radioligand is empirically determined for each batch of membranes prepared.

T1 sequence (P41594 21-1180 isoform P41594-2 limits assumed): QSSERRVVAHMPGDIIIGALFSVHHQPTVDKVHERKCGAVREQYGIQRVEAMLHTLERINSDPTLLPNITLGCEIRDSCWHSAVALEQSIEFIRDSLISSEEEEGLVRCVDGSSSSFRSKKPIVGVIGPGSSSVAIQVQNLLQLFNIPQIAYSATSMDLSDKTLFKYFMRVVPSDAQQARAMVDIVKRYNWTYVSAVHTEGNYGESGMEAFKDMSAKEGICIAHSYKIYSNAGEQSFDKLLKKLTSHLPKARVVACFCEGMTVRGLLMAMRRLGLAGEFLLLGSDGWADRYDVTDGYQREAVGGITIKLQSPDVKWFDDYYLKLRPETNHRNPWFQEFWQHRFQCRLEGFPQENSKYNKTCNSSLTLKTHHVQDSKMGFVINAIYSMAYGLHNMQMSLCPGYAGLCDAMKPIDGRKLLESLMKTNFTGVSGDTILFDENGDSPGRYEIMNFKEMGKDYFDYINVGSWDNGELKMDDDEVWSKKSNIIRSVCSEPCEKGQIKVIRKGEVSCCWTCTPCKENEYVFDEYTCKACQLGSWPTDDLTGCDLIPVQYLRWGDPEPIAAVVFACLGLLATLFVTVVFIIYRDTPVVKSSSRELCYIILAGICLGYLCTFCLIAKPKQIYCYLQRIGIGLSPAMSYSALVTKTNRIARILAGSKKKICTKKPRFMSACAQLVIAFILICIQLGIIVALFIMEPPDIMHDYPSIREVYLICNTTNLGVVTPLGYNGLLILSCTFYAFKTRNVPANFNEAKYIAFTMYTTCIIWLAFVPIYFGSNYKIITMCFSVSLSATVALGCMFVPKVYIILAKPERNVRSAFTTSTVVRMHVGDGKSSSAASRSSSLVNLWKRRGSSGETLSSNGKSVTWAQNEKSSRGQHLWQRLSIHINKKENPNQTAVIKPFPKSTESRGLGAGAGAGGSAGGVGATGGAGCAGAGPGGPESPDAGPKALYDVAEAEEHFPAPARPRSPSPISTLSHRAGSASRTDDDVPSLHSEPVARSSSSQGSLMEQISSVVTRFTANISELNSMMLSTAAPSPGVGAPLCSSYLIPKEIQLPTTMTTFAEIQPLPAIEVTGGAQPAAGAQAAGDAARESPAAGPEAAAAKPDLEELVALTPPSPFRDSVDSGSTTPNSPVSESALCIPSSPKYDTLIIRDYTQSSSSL

Row | Ki [nM] | Structure (SMILES)
1 | 4 | Cc1cc(-c2cc(Cl)cc(Cl)c2)cc(C(=O)Nc2ccn(C)n2)n1 [Example 23, 4-(3,5-Dichloro-phenyl)-6-methyl-pyridine-2-carboxylic acid (1-methyl-1H-pyrazol-3-yl)-amide]
2 | 81 | Cc1cc(-c2cc(F)cc(F)c2)cc(C(=O)Nc2ncc(F)s2)n1 [Example 200, 4-(3,5-Difluoro-phenyl)-6-methyl-pyridine-2-carboxylic acid (5-fluoro-thiazol-2-yl)-amide]
3 | 111 | Cc1cc(-c2cncc(F)c2)cc(C(=O)Nc2cccc(Cl)c2)n1 [Example 177, 5-Fluoro-6′-methyl-[3,4′]bipyridinyl-2′-carboxylic acid (3-chloro-phenyl)-amide]
4 | 620 | Cc1cc(-c2ccc(F)cc2)cc(C(=O)Nc2ccnc(Cl)c2)n1 [Example 31, 4-(4-Fluoro-phenyl)-6-methyl-pyridine-2-carboxylic acid (2-chloro-pyridin-4-yl)-amide]
5 | 51 | Cc1nc(C(=O)Nc2ccn(C)n2)cc(-c2cc(F)cc(F)c2)n1 [Example 35, 6-(3,5-Difluoro-phenyl)-2-methyl-pyrimidine-4-carboxylic acid (1-methyl-1H-pyrazol-3-yl)-amide]
6 | 714 | Cc1cc(-c2ccc(F)cc2)c(C)c(C(=O)Nc2ccn(C)n2)n1 [Example 118, 4-(4-Fluoro-phenyl)-3,6-dimethyl-pyridine-2-carboxylic acid (1-methyl-1H-pyrazol-3-yl)-amide]
7 | 79 | Cc1cc(-c2cc(F)cc(F)c2)cc(C(=O)Nc2nccc(Cl)n2)n1 [Example 167, 4-(3,5-Difluorophenyl)-6-methyl-pyridine-2-carboxylic acid (4-chloro-pyrimidin-2-yl)-amide]
8 | 287 | Cc1cc(-c2ccc(F)cc2)cc(C(=O)Nc2cccc(Cl)c2)n1 [Example 26, 4-(4-Fluoro-phenyl)-6-methyl-pyridine-2-carboxylic acid (3-chloro-phenyl)-amide]
9 | 90 | Cc1cc(NC(=O)c2cc(-c3cc(F)cc(F)c3)nc(C)n2)ccn1 [Example 37, 6-(3,5-Difluoro-phenyl)-2-methyl-pyrimidine-4-carboxylic acid (2-methyl-pyridin-4-yl)-amide]
10 | 20 | Cc1cc(-c2cc(F)cc(F)c2)cc(C(=O)Nc2nc(CC#N)cs2)n1 [Example 163, 4-(3,5-Difluorophenyl)-6-methyl-pyridine-2-carboxylic acid (4-cyanomethyl-thiazol-2-yl)-amide]
11 | 364 | Cc1cc(-c2cncc(F)c2)cc(C(=O)Nc2ccccc2)n1 [Example 180, 5-Fluoro-6′-methyl-[3,4′]bipyridinyl-2′-carboxylic acid phenylamide]
12 | 411 | Cc1cc(-c2cccnc2)cc(C(=O)Nc2cccc(C#N)c2)n1 [Example 95, 6′-Methyl-[3,4′]bipyridinyl-2′-carboxylic acid (3-cyanophenyl)-amide]
13 | 113 | Cc1nc(C(=O)Nc2ccnc(Cl)c2)cc(-c2cc(F)cc(F)c2)n1 [Example 36, 6-(3,5-Difluoro-phenyl)-2-methyl-pyrimidine-4-carboxylic acid (2-chloro-pyridin-4-yl)-amide]
14 | 929 | Cc1cc(-c2cc(F)cc(F)c2)cc(C(=O)Nc2ncc(C)s2)n1 [Example 86, 4-(3,5-Difluorophenyl)-6-methyl-pyridine-2-carboxylic acid (5-methyl-thiazol-2-yl)-amide]
15 | 250 | Cc1cc(-c2ccc(F)cc2)cc(C(=O)Nc2ccn(C)n2)n1 [Example 29, 4-(4-Fluoro-phenyl)-6-methyl-pyridine-2-carboxylic acid (1-methyl-1H-pyrazol-3-yl)-amide]
16 | 29 | COc1cncc(-c2cc(C)nc(C(=O)Nc3csc(C)n3)c2)c1 [Example 56, 5-Methoxy-6′-methyl-[3,4′]bipyridinyl-2′-carboxylic acid (2-methyl-thiazol-4-yl)-amide]

Same assay, conditions: competition with [3H]MPEP (2 nM), 1 h at 4° C., EBNA cell membranes, head prints no unit

Row | Ki [nM] | Structure (SMILES)
17 | 396 | Cc1cc(-c2cccc(S(C)(=O)=O)c2)cc(C(=O)Nc2nc(C)cs2)n1 [Example 8, 4-(3-Methanesulfonyl-phenyl)-6-methyl-pyridine-2-carboxylic acid (4-methyl-thiazol-2-yl)-amide]
18 | 29 | Cc1cc(-c2cc(F)ccc2F)cc(C(=O)Nc2nc(C)cs2)n1 [Example 5, 4-(2,5-Difluoro-phenyl)-6-methyl-pyridine-2-carboxylic acid (4-methyl-thiazol-2-yl)-amide]
19 | 14 | Cc1cc(-c2cccc(OC(F)(F)F)c2)cc(C(=O)Nc2nc(C)cs2)n1 [Example 7, 6-Methyl-4-(3-trifluoromethoxy-phenyl)-pyridine-2-carboxylic acid (4-methyl-thiazol-2-yl)-amide]
20 | 6 | Cc1cc(-c2cc(Cl)cc(Cl)c2)cc(C(=O)Nc2csc(C)n2)n1 [Example 20, 4-(3,5-Dichloro-phenyl)-6-methyl-pyridine-2-carboxylic acid (2-methyl-thiazol-4-yl)-amide]
21 | 7 | Cc1cc(-c2cc(F)cc(F)c2)cc(C(=O)Nc2nc(C)cs2)n1 [Example 2, 4-(3,5-Difluoro-phenyl)-6-methyl-pyridine-2-carboxylic acid (4-methyl-thiazol-2-yl)-amide]
22 | 253 | Cc1cc(-c2ccc(C#N)cc2)cc(C(=O)Nc2nc(C)cs2)n1 [Example 12, 4-(4-Cyano-phenyl)-6-methyl-pyridine-2-carboxylic acid (4-methyl-thiazol-2-yl)-amide]
23 | 17 | Cc1cc(-c2cccnc2)cc(C(=O)Nc2nc(C)cs2)n1 [Example 16, 6′-Methyl-[3,4′]bipyridinyl-2′-carboxylic acid (4-methyl-thiazol-2-yl)-amide]
